Patent US20060160773A1, “Combretastatin derivatives with cytotoxic action” (priority 2003, published 2006)
Like-named read-outs stand apart in the source and are kept apart here. Marks after values point to notes of the source that are not given here.

Experiments:
[1] = system: Bovine microcirculatory endothelial cells (BMEC); test: Cytotoxicity test (sulforodamine B), BMEC; assay type: cell-based; conditions: read-out: IC50 ± SE
Method: (§1) The cytotoxic effect of our derivatives was evaluated in series of human and murine cell lines.
Bovine microcirculatory endothelial cells (BMEC), isolated from bovine adrenal glands, were maintained in culture in DMEM containing 20% FBS, 50 μg/ml of bovine brain extract (BBE), 50 units/ml of heparin (SIGMA), 100 units/ml of gentami-cin (SIGMA) and 10 mg/ml of L-glutamine (Hyclone). EA-hy926, an immortalised hybridoma of HUVEC and adenocarcinoma cells, obtained from the University of Bari Department of Biomedical Sciences and Human Oncology, was cultured in DMEM added with 10% FBS and gentamicin.
(§2) For the cytotoxicity test the cells were seeded at variable densities according to cell type in 96-well plates in normal culture medium (200 μl/well) and incubated for 24 hours at 37° C. On the next day, the study substances were added at scalar concentrations and the cells were incubated for a further 24 hours at 37° C. in a humidified atmosphere containing 5% CO2. At the end of the incubation period the medium containing the substances was removed and three washings with PBS were performed. At the end of the washings 200 μl/well of fresh medium were added and the plates were incubated at 37° C. for a further 48 hours. At the end of this incubation period the culture medium was removed by overturning the plates and 200 μl/well of PBS and 50 μl of 80% cold trichloroacetic acid (TCA) were added. The plates were then incubated in ice. After 1 h the TCA was removed, the plates were washed three times by immersion in distilled water and dried first on blotting paper and then in the oven. 200 μl of 0.4% sulforodamine B in 1% acetic acid were then added to all wells. The plates were incubated at room temperature for a further 30 minutes. The sulforodamine B was removed by overturning, the plates were washed three times by immersion in 1% acetic acid, and then dried first on blotting paper and then in the oven. 200 μl of Tris base 10 mM were then added to all wells and the plates were placed under stirring for at least 20 min. The optical density was measured by spectrophotometric readout at 540 nm.
(§3) In the same table are reported the IC50 of ST2897, ST2898 and ST2899 on BMEC.

[2] = system: MES-SA human uterine sarcoma; test: Cytotoxicity test (sulforodamine B), MES-SA; assay type: cell-based; conditions: read-out: IC50 ± SE
Method: as §1
(§4) The following cell lines, purchased from ATCC, were cultured according to the manufacturer's instructions: MeWo human melanoma, NCI-H460 human lung cancer, LoVo human colon adenocarcinoma, PC3 human prostate carcinoma, MES-SA human uterine sarcoma, HCT 116 human colorectal carcinoma, MCF-7 human breast carcinoma.
as §2, §3

[3] = system: Human umbilical vein endothelial cells (HUVEC); test: Cytotoxicity test (sulforodamine B), HUVEC; assay type: cell-based; conditions: read-out: IC50 ± SE
Method: as §1
Human umbilical vein endothelial cells (HUVEC), from the BioWhittaker company, were maintained in EGM-2 culture medium (BioWhittaker).
as §2, §3

[4] = system: A2780 human ovarian carcinoma line; test: Cytotoxicity test (sulforodamine B), A2780; assay type: cell-based
Method: as §1
(§5) The M109 murine lung cancer line, the HT29 human colon adenocarcinoma line, the A2780 human ovarian carcinoma line, obtained from the Milan Tumour Institute, were cultured in RPMI containing 10% FBS and antibiotics.
as §2, §3

[5] = system: human NCI-H460 lung cancer cells; test: Anticancer activity in animal model of human lung carcinoma (NCI-H460 s.c. in nude CD1 mice); assay type: in vivo
Method: The anticancer activity of ST2495 and ST2496 was assayed in an animal model of human lung carcinoma.
In this model, human NCI-H460 lung cancer cells at a density of 3×10^6 cells/mouse were injected subcutaneously in the right flank of nude CD1 mice. […]
All the animals were weighed during the course of the treatment to adjust the drug administration volume and to record the percentage loss of body weight (% BWL).
Tumour growth was assessed by measuring the shorter diameter (width) and the longer diameter (length) of each tumour twice a week with a Vernier caliper, and the anticancer activity was evaluated in terms of percentage inhibition of tumour growth. The tumour volume was calculated using the following formula: tumour volume (TV) in mm^3=[length (mm)×width (mm)^2]/2. The percentage inhibition (% TVI) was calculated according to the following equation: 100−[(mean tumour volume of the treated group/mean tumour volume of the control group)×100]. A value of P≦0.05 was regarded as statistically significant.

[6] = system: NCI-H460 human lung cancer; test: Cytotoxicity test (sulforodamine B), NCI-H460; assay type: cell-based
Method: as §1, §4, §2, §3

MeWo human melanoma = test: Cytotoxicity test (sulforodamine B), MeWo; assay type: cell-based; conditions: read-out: IC50 ± SE
Method: as §1, §4, §2, §3

[7] = system: HT29 human colon adenocarcinoma line; test: Cytotoxicity test (sulforodamine B), HT29; assay type: cell-based
Method: as §1, §5, §2, §3

[8] = system: MCF-7 human breast carcinoma; test: Cytotoxicity test (sulforodamine B), MCF-7; assay type: cell-based
Method: as §1, §4, §2, §3

[9] = system: HCT 116 human colorectal carcinoma; test: Cytotoxicity test (sulforodamine B), HCT 116; assay type: cell-based
Method: as §1, §4, §2, §3

[10] = system: B16/BL6 murine melanoma line; test: Cytotoxicity test (sulforodamine B), B16/BL6; assay type: cell-based
Method: as §1
The B16/BL6 murine melanoma line, obtained from the M. Negri Institute in Milan, was cultured in DMEM containing 10% FBS and antibiotics.
as §2, §3

[11] = Evaluation of cardiovascular parameters (blood pressure, heart rate) in anaesthetised rats; assay type: in vivo; conditions: 20 or 40 mg/kg injected in the jugular vein, anaesthetised Wistar rats (FIG. 1)
Method: Combretastatin A4, its prodrug ST2494 and our water soluble selected compounds ST2495 and ST2496, diluted at the doses of 20 or 40 mg/kg in saline solution or for combretastatin A4 in 5% DMSO, were injected in the jugular vein of Wistar rats anaesthetised with 55 mg/kg Nembutal. The parameter considered were blood pressure and heart rate.

[12] = i.v. 60 mg/kg, q2dx6, day 5 to day 17
[13] = i.v. 90 mg/kg, q2dx6, day 5 to day 17
[14] = p.o. 30 mg/kg, qdx5/w, day 4 to day 14
[15] = 24 h exposure, 48 h recovery, SRB
[16] = i.p. 30 mg/kg twice/day, qd5x/w, day 4 to day 22
[17] = i.p. 30 mg/kg, qd5x/w once a day, day 4 to day 22
[18] = i.v. 60 mg/kg, q2dx6, day 4 to day 16
[19] = i.v. 90 mg/kg, q2dx6, day 4 to day 16
[20] = p.o. 30 mg/kg twice/day, qd5x/w, day 4 to day 22
[21] = p.o. 60 mg/kg twice/day, qd5x/w, day 4 to day 22

COc1cc(/C=C\c2cc(OP(=O)(O)O)c3ccoc3c2)cc(OC)c1OC [ST2496, Disodium 6[(Z)-2-(3,4,5-trimethoxyphenyl)ethenyl]-1-benzo-furan-4-ol 4-O-phosphate]
IC50 ([1]; Bos taurus, Endothelial cell): 0.34 ± 0.016 µM | IC50 ([2]; Homo sapiens, MES-SA): 0.5 ± 0.05 µM | IC50 ([3]; Homo sapiens): 0.085 ± 0.0012 µM | IC50 ([4]; Homo sapiens, A2780, read-out: IC50 ± SE): 0.26 ± 0.006 µM | % BWL [5, 12]: 1% | Mortality [5, 12]: 0/8 | % TVI ([5]; i.v. 60 mg/kg, q2dx6 day 5 to 17, day 14 after tumor inoculation): 48** % | % TVI ([5]; i.v. 60 mg/kg, q2dx6 day 5 to 17, day 21 after tumor inoculation): 53** % | % BWL [5, 13]: 1% | Mortality [5, 13]: 0/8 | % TVI ([5]; i.v. 90 mg/kg, q2dx6 day 5 to 17, day 14 after tumor inoculation): 57*** % | % TVI ([5]; i.v. 90 mg/kg, q2dx6 day 5 to 17, day 21 after tumor inoculation): 56** % | % TVI ([5]; p.o. 30 mg/kg, qdx5/w day 4 to 14, day 14 after tumor inoculation): 48* % | % TVI ([5]; p.o. 30 mg/kg, qdx5/w day 4 to 14, day 21 after tumor inoculation): 46* % | % BWL [5, 14]: 1% | Mortality [5, 14]: 0/8 | IC50 ([6]; Homo sapiens, NCI-H460, read-out: IC50 ± SE): 0.78 ± 0.0034 µM | IC50 (MeWo human melanoma; Homo sapiens): 0.82 ± 0.0077 µM | IC50 ([7]; Homo sapiens, HT-29, read-out: IC50 ± SE): 3.9 ± 0.07 µM | IC50 ([8]; Homo sapiens, MCF7, read-out: IC50 ± SE): 0.646 ± 0.029 µM | IC50 ([9]; Homo sapiens, HCT-116, read-out: IC50 ± SE): 1.68 ± 0.07 µM | IC50 ([10]; Mus musculus, B16-BL6, read-out: IC50 ± SE): 4.14 ± 0.49 µM | blood pressure [11]: did not show significant effect | heart rate [11]: did not show significant effect

COc1ccc(/C=C\c2cc(OC)c3ccoc3c2)cc1O [ST2897, Cis-2-Methoxy-5-[2-(4-methoxy-benzofuran-6-yl)-vinyl]-phenol]
IC50 ([1]; Bos taurus, Endothelial cell): 0.035 ± 0.0018 µM

COc1ccc(/C=C\c2cc(OC)c3occc3c2)cc1O [ST2898, Cis-2-Methoxy-5-[2-(7-methoxy-benzofuran-5-yl)-vinyl]-phenol]
IC50 ([1]; Bos taurus, Endothelial cell): 0.035 ± 0.0003 µM

COc1ccc(/C=C\c2cc(OC)c3ccsc3c2)cc1O [ST2899, Cis-2-Methoxy-5-[2-(4-methoxy-benzo[b]thiophen-6-yl)-vinyl]-phenol]
IC50 ([1]; Bos taurus, Endothelial cell): < 0.04 µM

Disodium 6[(Z)-2-(3,4,5-trimethoxyphenyl)ethenyl]-1-benzo-thiophen-4-ol-4-O-phospohate [ST2495]
IC50 ([1]; BMEC, 24 h exposure, 48 h recovery, SRB): 0.64 ± 0.04 µM | IC50 ([2]; MESSA, 24 h exposure, 48 h recovery, SRB): 1.42 ± 0.049 µM | IC50 [3, 15]: 0.083 ± 0.00206 µM | IC50 ([4]; A2780, 24 h exposure, 48 h recovery, SRB, read-out: IC50 ± SE): 0.5 ± 0.02 µM | anticancer activity (summary in words) ([5]; NCI-H460 in nude mice, i.p., p.o. and i.v. routes): proved active with all the administration routes | % BWL [5, 16]: 0% | Mortality [5, 16]: 0/8 | % TVI ([5]; i.p. 30 mg/kg twice/day, qd5x/w, day 15 after tumor inoculation): 75** % | % TVI ([5]; i.p. 30 mg/kg twice/day, qd5x/w, day 22 after tumor inoculation): 72** % | % BWL [5, 17]: 4% | Mortality [5, 17]: 0/8 | % TVI ([5]; i.p. 30 mg/kg, qd5x/w once a day, day 15 after tumor inoculation): 32** % | % TVI ([5]; i.p. 30 mg/kg, qd5x/w once a day, day 22 after tumor inoculation): 38* % | % BWL [5, 18]: 1% | Mortality [5, 18]: 0/8 | % TVI ([5]; i.v. 60 mg/kg, q2dx6 day 4 to 16, day 15 after tumor inoculation): 84** % | % TVI ([5]; i.v. 60 mg/kg, q2dx6 day 4 to 16, day 22 after tumor inoculation): 73** % | % BWL [5, 19]: 0% | Mortality [5, 19]: 0/8 | % TVI ([5]; i.v. 90 mg/kg, q2dx6 day 4 to 16, day 15 after tumor inoculation): 81** % | % TVI ([5]; i.v. 90 mg/kg, q2dx6 day 4 to 16, day 22 after tumor inoculation): 62** % | % BWL [5, 20]: 0% | Mortality [5, 20]: 0/8 | % TVI ([5]; p.o. 30 mg/kg twice/day, qd5x/w, day 15 after tumor inoculation): 42** % | % TVI ([5]; p.o. 30 mg/kg twice/day, qd5x/w, day 22 after tumor inoculation): 30* % | % BWL [5, 21]: 1% | Mortality [5, 21]: 0/8 | % TVI ([5]; p.o. 60 mg/kg twice/day, qd5x/w, day 15 after tumor inoculation): 79** % | % TVI ([5]; p.o. 60 mg/kg twice/day, qd5x/w, day 22 after tumor inoculation): 67** % | IC50 ([6]; NCI-H460, 24 h exposure, 48 h recovery, SRB, read-out: IC50 ± SE): 0.62 ± 0.065 µM | IC50 (MeWo human melanoma; [15]): 0.83 ± 0.00013 µM | IC50 ([7]; HT29, 24 h exposure, 48 h recovery, SRB, read-out: IC50 ± SE): > 10 µM | IC50 ([8]; MCF-7, 24 h exposure, 48 h recovery, SRB, read-out: IC50 ± SE): 0.693 ± 0.021 µM | IC50 ([9]; HCT-116, 24 h exposure, 48 h recovery, SRB, read-out: IC50 ± SE): 3 ± 0.102 µM | IC50 ([10]; B16/BL6, 24 h exposure, 48 h recovery, SRB, read-out: IC50 ± SE): > 10 µM
